Experimental data published in ChEMBL document CHEMBL1123782, “6-Alkoxy-N,N-disubstituted-2-pyridinamines as anticonvulsant agents” (1987).

How the values were obtained:
Assay type in all cases: functional
Mus musculus [1] = test: Anticonvulsant activity expressed as minimum ataxic dose (MAD) at which mice fell off inverted screen at 30 min post administration
Mus musculus [2] = test: Anticonvulsant activity expressed as minimum effective dose (MED) against tonic extension produced by maximal electroshock (MES) at 30 min post administration in mice; settings: 0.5 h, read-out: MED
Mus musculus [3] = test: Anticonvulsant activity was determined in mouse (administered intraperitoneally) tested for 0.5 hours using rotarod ataxia test (ADD program); settings: ip
Mus musculus [4] = test: Anticonvulsant activity was determined in mouse (administered perorally) tested for 0.5 hours using inverted wire mesh ataxia test; settings: po
Mus musculus [5] = test: Anticonvulsant activity was determined in mouse (administered intraperitoneally) for 0.5 hours using rotarod ataxia test (ADD program); settings: ip
Rattus norvegicus [6] = test: Anticonvulsant activity was determined in rat (administered perorally) tested for 0.5 hours using maximal electroshock test; settings: po
Mus musculus [7] = test: Anticonvulsant activity was determined in mouse (administered intraperitoneally) for 0.5 hours using maximal electroshock test (ADD program); settings: ip
Rattus norvegicus [8] = test: Anticonvulsant activity was determined in rat (administered perorally) tested for 4 hours using ataxia test; settings: po
Mus musculus [9] = test: Anticonvulsant activity was determined in mouse (administered intraperitoneally) tested for 0.5 hours using inverted wire mesh ataxia test; settings: ip
Mus musculus [10] = test: Anticonvulsant activity was determined in mouse (administered intraperitoneally) for 0.5 hours using maximal electroshock test; settings: ip
Mus musculus [11] = test: Anticonvulsant activity was determined in mouse (administered perorally) for 0.5 hours using maximal electroshock test (ADD) program; settings: po
Mus musculus [12] = test: Anticonvulsant activity was determined in mouse (administered intraperitoneally) for 0.5 hours using inverted wire mesh ataxia test; settings: ip
Mus musculus [13] = test: Anticonvulsant activity was determined in mouse (administered perorally) tested for 1 hour using maximal electroshock test; settings: po
Mus musculus [14] = test: Anticonvulsant activity was determined in mouse (administered perorally) tested for 0.5 hours using maximal electroshock test (ADD program); settings: po
Mus musculus [15] = test: Anticonvulsant activity was determined in mouse (administered intraperitoneally) tested for 0.5 hours using maximal electroshock test; settings: ip
Mus musculus [16] = test: Anticonvulsant activity was determined in mouse (administered perorally) tested for 1 hour using rotarod ataxia test (ADD program); settings: po
Mus musculus [17] = test: Anticonvulsant activity was determined in mouse (administered intraperitoneally) tested for 0.5 hours using maximal electroshock test (ADD program); settings: ip
Mus musculus [18] = test: Anticonvulsant activity was determined in mouse (administered perorally) tested for 2.0 hours using rotarod ataxia test (ADD program); settings: po
Mus musculus [19] = test: Anticonvulsant activity was determined in mouse administered perorally tested for 2.0 hours using maximal electric shock test; settings: po
Mus musculus [20] = test: Anticonvulsant activity was determined in mouse (administered intraperitoneally) tested for 2.0 hours using maximal electric shock test (ADD program); settings: ip
Mus musculus [21] = test: Anticonvulsant activity was determined in mouse (administered intraperitoneally) tested for 2.0 hours using maximal electroshock test.; settings: ip
Mus musculus [22] = test: Anticonvulsant activity was determined in mouse (administered intraperitoneally) tested for 2.0 hours using rotarod ataxia test (ADD program); settings: ip
Mus musculus [23] = test: Anticonvulsant activity was determined in mouse (administered perorally) tested for 2.0 hours using maximal electroshock test; settings: po
Mus musculus [24] = test: Anticonvulsant activity was determined in mouse (administered intraperitoneally) tested for 2.0 hours using maximal electroshock test (ADD program); settings: ip
Mus musculus [25] = test: Anticonvulsant activity was determined in mouse (administered perorally) tested for 2.0 hours using maximal electric shock test (ADD program); settings: po
Mus musculus [26] = test: Anticonvulsant activity was determined in mouse (administered intraperitoneally) tested for 2.0 hours using electroshock test; settings: ip
Mus musculus [27] = test: Anticonvulsant activity was determined in mouse (administered intraperitoneally) tested for 2.0 hours using inverted wire mesh ataxia test; settings: ip
Mus musculus [28] = test: Anticonvulsant activity was determined in mouse (administered perorally) tested for 2.0 hours using inverted wire mesh ataxia test; settings: po

**Q.** With `CC(C)COc1cccc(N2CCCNCC2)n1` as the molecule, how does the MAD (Mus musculus [1]) read?
**A.** 100 mg/kg

**Q.** And the minimal effective dose (Mus musculus [2])?
**A.** 30 mg/kg

**Q.** Which MAD (Mus musculus [1]) does the source give for `c1cc(OCC2CCCCC2)nc(N2CCNCC2)c1` here?
**A.** 30 mg/kg

**Q.** What about the minimal effective dose (Mus musculus [2]) of the same molecule?
**A.** 30 mg/kg

**Q.** What does the source list for `CC(C)COc1cccc(N2CCN(C)CC2)n1`?
**A.** MAD (Mus musculus [1]): 30 mg/kg; minimal effective dose (Mus musculus [2]): 30 mg/kg

**Q.** `CC(C)COc1cccc(N2CCCCC2)n1` was tested. Which MAD (Mus musculus [1]) did it give?
**A.** >300 mg/kg

**Q.** What about the minimal effective dose (Mus musculus [2]) of the same molecule?
**A.** > 300 mg/kg

**Q.** With `Oc1cccc(N2CCNCC2)n1` as the molecule, how does the MAD (Mus musculus [1]) read?
**A.** >300 mg/kg

**Q.** What about the minimal effective dose (Mus musculus [2]) of the same molecule?
**A.** > 300 mg/kg

**Q.** What does the source list for `CC(C)Oc1cccc(N2CCNCC2)n1`?
**A.** MAD (Mus musculus [1]): <10 mg/kg; minimal effective dose (Mus musculus [2]): 30 mg/kg

**Q.** What does the source list for `c1cc(OCC2CC2)nc(N2CCNCC2)c1`?
**A.** MAD (Mus musculus [1]): 10 mg/kg; minimal effective dose (Mus musculus [2]): 10 mg/kg

**Q.** For `CN(C)CCOc1cccc(N2CCNCC2)n1`, which MAD (Mus musculus [1]) is on record?
**A.** >300 mg/kg

**Q.** What about the minimal effective dose (Mus musculus [2]) of the same molecule?
**A.** > 300 mg/kg

**Q.** For `CC(C)COc1cccc(NCCN(C)C)n1`, which MAD (Mus musculus [1]) is on record?
**A.** 300 mg/kg

**Q.** And the minimal effective dose (Mus musculus [2])?
**A.** 100 mg/kg

**Q.** What does the source list for `COc1cccc(N2CCNCC2)n1`?
**A.** MAD (Mus musculus [1]): 10 mg/kg; minimal effective dose (Mus musculus [2]): 30 mg/kg

**Q.** How did the MAD (Mus musculus [1]) turn out when `c1cc(OC2CCCCC2)nc(N2CCNCC2)c1` was run?
**A.** 10 mg/kg

**Q.** What about the minimal effective dose (Mus musculus [2]) of the same molecule?
**A.** 30 mg/kg

**Q.** `CC(C)COc1cccc(N2CCNCC2)n1` was tested. Which ED10 (Mus musculus [3]) did it give?
**A.** 30 mg/kg

**Q.** What about the ED90 (Mus musculus [3]) of the same molecule?
**A.** 69 mg/kg

**Q.** And the ED10 (Mus musculus [4])?
**A.** 11 mg/kg

**Q.** And the ED50 (Mus musculus [4])?
**A.** 35 mg/kg

**Q.** What about the ED90 (Mus musculus [4]) of the same molecule?
**A.** 114 mg/kg

**Q.** And the ED50 (Mus musculus [5])?
**A.** 46 mg/kg

**Q.** What about the ED10 (Rattus norvegicus [6]) of the same molecule?
**A.** 6.6 mg/kg

**Q.** What about the ED50 (Rattus norvegicus [6]) of the same molecule?
**A.** 36 mg/kg

**Q.** And the ED90 (Rattus norvegicus [6])?
**A.** 195 mg/kg

**Q.** And the ED50 (Mus musculus [7])?
**A.** 7.5 mg/kg

**Q.** What about the ED10 (Rattus norvegicus [8]) of the same molecule?
**A.** 340 mg/kg

**Q.** And the ED50 (Rattus norvegicus [8])?
**A.** 525 mg/kg

**Q.** And the ED90 (Rattus norvegicus [8])?
**A.** 830 mg/kg

**Q.** And the MAD (Mus musculus [1])?
**A.** 30 mg/kg

**Q.** What about the ED10 (Mus musculus [9]) of the same molecule?
**A.** 6.6 mg/kg

**Q.** And the ED90 (Mus musculus [9])?
**A.** 39 mg/kg

**Q.** What about the minimal effective dose (Mus musculus [2]) of the same molecule?
**A.** 10 mg/kg

**Q.** What about the ED50 (Mus musculus [10]) of the same molecule?
**A.** 7.5 mg/kg

**Q.** And the ED50 (Mus musculus [11])?
**A.** 19 mg/kg

**Q.** And the ED50 (Mus musculus [12])?
**A.** 16 mg/kg

**Q.** And the ED10 (Mus musculus [13])?
**A.** 7.6 mg/kg

**Q.** What about the ED50 (Mus musculus [13]) of the same molecule?
**A.** 11.1 mg/kg

**Q.** What about the ED90 (Mus musculus [13]) of the same molecule?
**A.** 17 mg/kg

**Q.** What about the ED10 (Mus musculus [14]) of the same molecule?
**A.** 10.7 mg/kg

**Q.** What about the ED90 (Mus musculus [14]) of the same molecule?
**A.** 35 mg/kg

**Q.** And the ED10 (Mus musculus [15])?
**A.** 5.4 mg/kg

**Q.** What about the ED90 (Mus musculus [15]) of the same molecule?
**A.** 10.7 mg/kg

**Q.** And the ED10 (Mus musculus [16])?
**A.** 115 mg/kg

**Q.** And the ED50 (Mus musculus [16])?
**A.** 139 mg/kg

**Q.** And the ED90 (Mus musculus [16])?
**A.** 164 mg/kg

**Q.** And the ED10 (Mus musculus [17])?
**A.** 5 mg/kg

**Q.** And the ED90 (Mus musculus [17])?
**A.** 11.2 mg/kg

**Q.** For `CCOc1cccc(N2CCNCC2)n1`, which MAD (Mus musculus [1]) is on record?
**A.** 10 mg/kg

**Q.** And the minimal effective dose (Mus musculus [2])?
**A.** 30 mg/kg

**Q.** Which MAD (Mus musculus [1]) does the source give for `CC(C)COc1cccc(N2CCOCC2)n1` here?
**A.** 300 mg/kg

**Q.** And the minimal effective dose (Mus musculus [2])?
**A.** 300 mg/kg

**Q.** With `O=C1NC(=O)C(c2ccccc2)(c2ccccc2)N1` [PHENYTOIN] as the molecule, how does the ED50 (Mus musculus [18]) read?
**A.** 95 mg/kg

**Q.** And the ED50 (Mus musculus [19])?
**A.** 8.3 mg/kg

**Q.** What about the ED90 (Mus musculus [20]) of the same molecule?
**A.** 13 mg/kg

**Q.** And the ED50 (Rattus norvegicus [6])?
**A.** 33 mg/kg

**Q.** And the ED10 (Mus musculus [21])?
**A.** 3.7 mg/kg

**Q.** What about the ED90 (Mus musculus [21]) of the same molecule?
**A.** 15 mg/kg

**Q.** And the ED50 (Rattus norvegicus [8])?
**A.** > 3000 mg/kg

**Q.** What about the ED10 (Mus musculus [22]) of the same molecule?
**A.** 60 mg/kg

**Q.** What about the ED50 (Mus musculus [22]) of the same molecule?
**A.** 71 mg/kg

**Q.** What about the ED90 (Mus musculus [22]) of the same molecule?
**A.** 86 mg/kg

**Q.** And the ED10 (Mus musculus [23])?
**A.** 4.9 mg/kg

**Q.** And the ED90 (Mus musculus [23])?
**A.** 14 mg/kg

**Q.** What about the ED10 (Mus musculus [24]) of the same molecule?
**A.** 8.4 mg/kg

**Q.** And the ED50 (Mus musculus [24])?
**A.** 10.4 mg/kg

**Q.** And the ED50 (Mus musculus [25])?
**A.** 9.8 mg/kg

**Q.** And the ED50 (Mus musculus [26])?
**A.** 7.4 mg/kg

**Q.** What about the ED10 (Mus musculus [27]) of the same molecule?
**A.** 33 mg/kg

**Q.** And the ED50 (Mus musculus [27])?
**A.** 45 mg/kg

**Q.** What about the ED90 (Mus musculus [27]) of the same molecule?
**A.** 63 mg/kg

**Q.** And the ED10 (Mus musculus [28])?
**A.** 50 mg/kg

**Q.** What about the ED50 (Mus musculus [28]) of the same molecule?
**A.** 78 mg/kg

**Q.** What about the ED90 (Mus musculus [28]) of the same molecule?
**A.** 125 mg/kg
